Source: the supplement of paper PMC4862054

What was measured:
HCC1599 [1] = assay: drug sensitivity score (DSS), CellTox Green (DSS (AUC-based score)); higher = stronger drug effect (viability inhibition or cytotoxicity); extreme values may be limits of the assay; settings: incubation time: 72 h
Method in brief: (§1)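 Breast cancer cell lines (20 µl suspension) were seeded into 384-well plates holding compound at 5 concentrations in 10-fold steps over a compound-specific 10,000-fold range, then incubated 72 h. CellTox Green fluorescence (485/520 nm) was read first, then CellTiter-Glo luminescence after 10 min at room temperature. Each plate was normalised to 0.1 % DMSO and a positive kill control. The drug sensitivity score was calculated from the area under the fitted dose-response curve.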

BT-549 [2] = assay: as above; settings: incubation time: 72 h
Method in brief: as §1

CAL-51 [3] = assay: as above; settings: incubation time: 72 h
Method in brief: as §1

MDA-MB-453 [4] = assay: as above; settings: incubation time: 72 h
Method in brief: as §1

CAL-148 [5] = assay: as above; settings: incubation time: 72 h
Method in brief: as §1

HDQ-P1 [6] = assay: as above; settings: incubation time: 72 h
Method in brief: as §1

Hs578T [7] = assay: as above; settings: incubation time: 72 h
Method in brief: as §1

MDA-MB-231 [8] = assay: as above; settings: incubation time: 72 h
Method in brief: as §1

MFM-223 [9] = assay: as above; settings: incubation time: 72 h
Method in brief: as §1

DU-4475 [10] = assay: as above; settings: incubation time: 72 h
Method in brief: as §1

CAL-85-1 = assay: normalised viability (% of control), CellTiter-Blue; higher = more viable cells (about 100 = DMSO control); settings: 0.99 nM; incubation time: 72 h
Description: (§2)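 DSRT, CellTiter-Blue viability, 72 h incubation. Signal is normalised to DMSO and benzethonium chloride controls. Value is the normalised response at dose 3.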

HCC1599 [11] = assay: as above; settings: 9.9 nM; incubation time: 72 h
Description: as §2

BT-549 [12] = assay: as above; settings: 9.9 nM; incubation time: 72 h
Description: as §2

MDA-MB-468 = assay: as above; settings: 9.9 nM; incubation time: 72 h
Description: as §2

CAL-51 [13] = assay: as above; settings: 0.99 nM; incubation time: 72 h
Description: as §2

MDA-MB-436 = assay: as above; settings: 9.9 nM; incubation time: 72 h
Description: as §2

MDA-MB-453 [14] = assay: as above; settings: 0.99 nM; incubation time: 72 h
Description: as §2

SK-BR-3 = assay: as above; settings: 9.9 nM; incubation time: 72 h
Description: as §2

CAL-148 [15] = assay: as above; settings: 0.99 nM; incubation time: 72 h
Description: as §2

HDQ-P1 [16] = assay: as above; settings: 0.99 nM; incubation time: 72 h
Description: as §2

Hs578T [17] = assay: as above; settings: 9.9 nM; incubation time: 72 h
Description: as §2

MDA-MB-231 [18] = assay: as above; settings: 9.9 nM; incubation time: 72 h
Description: as §2

HCC1937 = assay: as above; settings: 9.9 nM; incubation time: 72 h
Description: as §2

MFM-223 [19] = assay: as above; settings: 9.9 nM; incubation time: 72 h
Description: as §2

BT-474 = assay: as above; settings: 9.9 nM; incubation time: 72 h
Description: as §2

DU-4475 [20] = assay: as above; settings: 0.99 nM; incubation time: 72 h
Description: as §2

CAL-120 [21] = assay: as above; settings: 9.9 nM; incubation time: 72 h
Description: as §2

HCC1143 = assay: as above; settings: 9.9 nM; incubation time: 72 h
Description: as §2

CAL-120 [22] = assay: normalised viability (% of control), CellTiter-Blue; higher = more viable cells (about 100 = DMSO control); settings: incubation time: 72 h
Method in brief: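 384-well plates were pre-loaded with compound in 5 µl medium before 20 µl of breast cancer cell suspension was seeded. Following 72 h incubation, 2.5 µl CellTiter-Blue reagent was added for 2 h at 37 °C. Fluorescence was read at 560/590 nm and plates were normalised to vehicle (100) and a positive kill control (0), checked by Z'-factor. Normalised viability is reported at a single listed concentration of the series.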

CCN(CC)CCCC(C)Nc1ccnc2cc(Cl)ccc12 (stereo unspecified) [Chloroquine]
drug sensitivity score (HCC1599 [1]): 2.54 | drug sensitivity score (BT-549 [2]): 1.78 | drug sensitivity score (CAL-51 [3]): 3.75 | drug sensitivity score (MDA-MB-453 [4]): 9.85 | drug sensitivity score (CAL-148 [5]): 11.8 | drug sensitivity score (HDQ-P1 [6]): 5.48 | drug sensitivity score (Hs578T [7]): 8.48 | drug sensitivity score (MDA-MB-231 [8]): 11.6 | drug sensitivity score (MFM-223 [9]): 9.2 | drug sensitivity score (DU-4475 [10]): 1.64 | normalised viability (CAL-85-1): 94.8% | normalised viability (HCC1599 [11]): 128% | normalised viability (BT-549 [12]): 104% | normalised viability (MDA-MB-468): 105% | normalised viability (CAL-51 [13]): 90.3% | normalised viability (MDA-MB-436): 117% | normalised viability (MDA-MB-453 [14]): 100% | normalised viability (SK-BR-3): 92% | normalised viability (CAL-148 [15]): 85% | normalised viability (HDQ-P1 [16]): 106% | normalised viability (Hs578T [17]): 90.2% | normalised viability (MDA-MB-231 [18]): 107% | normalised viability (HCC1937): 115% | normalised viability (MFM-223 [19]): 98.2% | normalised viability (BT-474): 104% | normalised viability (DU-4475 [20]): 98.2% | normalised viability (CAL-120 [21]): 102% | normalised viability (HCC1143): 87.7% | normalised viability (CAL-120 [22]; 0.99 nM): 96.1% | normalised viability (CAL-120 [22]; 99 nM): 104% | normalised viability (CAL-120 [22]; 990 nM): 105%
